Here are results for 14 compounds from PubChem BioAssay (NCI).

Test systems include HCT-15 colon; MDA-N; NCI-H522 lung; SR leukemia; SNB-19 CNS; NCI-H23 lung; OVCAR-3 ovarian; MCF7 breast; CAKI-1 renal; MDA-MB-231 breast.
Common to all, as to experiment: NCI-60 cell line screen, 48 h

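How tested: cells in 96-well plates exposed to compound for 48 hours at five concentrations. TGI marks complete inhibition of growth.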

For the compound `COc1c(C)c(C/C=C(\C)CCCCO)c(OC)c2ccccc12`, the TGI with HCT-15 colon is greater than 100 µM; in the assay on MDA-N it was greater than 100 µM; in the assay with NCI-H522 lung it was 42.3 µM; in the assay on SR leukemia, 55.6 µM; in the assay with SNB-19 CNS, greater than 100 µM; in the assay with NCI-H23 lung it was 94.2 µM. In addition, the TGI was greater than 100 µM in the assay with OVCAR-3 ovarian, greater than 100 µM in the assay on MCF7 breast, 94.9 µM in the assay with CAKI-1 renal and greater than 100 µM in the assay with MDA-MB-231 breast.
For `COC(=O)C1Cc2c([nH]c3ccccc23)-c2[nH]c3ccccc3c2CC(NC(C)=O)C(=O)N2CCCC2C(=O)N1` (stereo not drawn), the TGI in the assay with HCT-15 colon, in the assay on MDA-N, in the assay on NCI-H522 lung, in the assay on SR leukemia, in the assay with SNB-19 CNS and with NCI-H23 lung was greater than 100 µM each time. Further, the TGI in the assay with OVCAR-3 ovarian, with MCF7 breast, with CAKI-1 renal and in the assay with MDA-MB-231 breast was greater than 100 µM throughout.
As to `COc1cc2nc3n(c(=O)c2cc1OC)CCCCC3`, the TGI with HCT-15 colon, with MDA-N, with NCI-H522 lung, with SR leukemia, with NCI-H23 lung and with OVCAR-3 ovarian was greater than 100 µM throughout. The TGI with MCF7 breast, in the assay with CAKI-1 renal and in the assay on MDA-MB-231 breast was greater than 100 µM in each case.
With `O=C1c2c(F)c(F)c(F)c(F)c2SC2=Nc3cccc4cccc(c34)N12`, the TGI with HCT-15 colon is 14.8 µM; in the assay with MDA-N it was 16.7 µM; with NCI-H522 lung it was 9.01 µM; with SR leukemia, 15.2 µM; in the assay with SNB-19 CNS it was 21.1 µM; in the assay on NCI-H23 lung it was 10.9 µM. Besides, the TGI with OVCAR-3 ovarian turned out to be 7.58 µM; with MCF7 breast, 16 µM; in the assay with CAKI-1 renal, 29 µM; with MDA-MB-231 breast, 11.7 µM.
For the compound `CN(C)C=Nc1c2c(nc3ccccc13)CCCC2`, the TGI with HCT-15 colon, with MDA-N, in the assay with NCI-H522 lung, in the assay on SR leukemia, in the assay on SNB-19 CNS and in the assay with NCI-H23 lung was greater than 100 µM in each case. In addition, the TGI in the assay with OVCAR-3 ovarian, with MCF7 breast, in the assay on CAKI-1 renal and in the assay on MDA-MB-231 breast was greater than 100 µM each time.
Regarding `Cc1csc2c(=O)n(COCc3ccccc3)c(=O)[nH]c12`, the TGI in the assay on MDA-N, with NCI-H522 lung, in the assay with SR leukemia, with SNB-19 CNS, in the assay with NCI-H23 lung and in the assay with OVCAR-3 ovarian was greater than 100 µM in each case. For the same compound, the TGI in the assay on MCF7 breast, with CAKI-1 renal and in the assay on MDA-MB-231 breast was greater than 100 µM throughout.
For the compound `Cn1c(=O)oc2cc(C(=S)N3CCCCC3)ccc21`, the TGI with HCT-15 colon, in the assay with MDA-N, in the assay with SR leukemia, in the assay on SNB-19 CNS, in the assay with NCI-H23 lung and with OVCAR-3 ovarian was greater than 100 µM throughout. Further, the TGI with MCF7 breast, in the assay with CAKI-1 renal and with MDA-MB-231 breast was greater than 100 µM each time.
Turning to `Clc1ccc(Nc2nnc(CNc3ccc(-c4nnc(Nc5ccc(Cl)cc5)o4)cc3)o2)cc1`, the TGI with HCT-15 colon was 35.4 µM; in the assay with MDA-N, 44.5 µM; in the assay with NCI-H522 lung, 37.1 µM; with SNB-19 CNS, 46 µM; in the assay on NCI-H23 lung it was 36 µM; with OVCAR-3 ovarian it was 23.9 µM. In addition, the TGI in the assay on MCF7 breast is 34.9 µM; in the assay with CAKI-1 renal, 33.9 µM; with MDA-MB-231 breast, 25.4 µM.
Turning to `COC(=O)CN(CC1O[C@@H]2OC(C)(C)O[C@@H]2C1NC(C)=O)C(=O)OCc1ccccc1` (stereo partly drawn), the TGI in the assay on HCT-15 colon, in the assay with MDA-N, in the assay on NCI-H522 lung, in the assay on SR leukemia, with SNB-19 CNS and in the assay on OVCAR-3 ovarian was greater than 100 µM each time. The TGI with MCF7 breast, with CAKI-1 renal and in the assay with MDA-MB-231 breast was greater than 100 µM throughout.
On to `CCSc1[nH]c(NC(=NC(C)C)NC(=O)c2ccccc2)c(C(N)=O)c1C(N)=O`, for which the TGI with HCT-15 colon, with MDA-N, with SR leukemia, in the assay on NCI-H23 lung, with MCF7 breast and with CAKI-1 renal was greater than 10 µM each time. Moreover, in the assay on MDA-MB-231 breast, the TGI was greater than 10 µM.
Turning to `O=C(NCCCc1cn[nH]c(=O)n1)c1cccc2nc3ccccc3nc12`, the TGI in the assay with HCT-15 colon, with MDA-N, with SR leukemia, in the assay on SNB-19 CNS, in the assay on NCI-H23 lung and with OVCAR-3 ovarian was greater than 100 µM each time. For the same compound, the TGI in the assay with MCF7 breast, in the assay on CAKI-1 renal and in the assay on MDA-MB-231 breast was greater than 100 µM each time.
Consider `Cc1cc2nc(CC(C(F)(F)F)C(F)(F)F)oc2cc1C`, for which the TGI came to 26.8 µM in the assay with HCT-15 colon; 5.85 µM in the assay with MDA-N; 1.13 µM in the assay on NCI-H522 lung; 17.5 µM in the assay with SNB-19 CNS; 8.15 µM in the assay on NCI-H23 lung; 14.2 µM in the assay with OVCAR-3 ovarian. Besides, the TGI is 24.1 µM in the assay with MCF7 breast, 5.13 µM in the assay with CAKI-1 renal and 9.09 µM with MDA-MB-231 breast.
In the case of `CN1C(=O)[C@@H]2[C@@H]3c4ccccc4N[C@@H]3c3[nH]c4ccccc4c3[C@@H]2C1=O`, the TGI in the assay on HCT-15 colon is 50.1 µM; in the assay on MDA-N it was greater than 100 µM; in the assay with SR leukemia, 59.3 µM; in the assay on SNB-19 CNS, greater than 100 µM; in the assay on NCI-H23 lung, 28.6 µM; in the assay with OVCAR-3 ovarian, 40 µM. The TGI in the assay on MCF7 breast is greater than 100 µM; with CAKI-1 renal, greater than 100 µM; in the assay with MDA-MB-231 breast it was 63.2 µM.
For `CC(=O)CC12NC(=O)N(C)N=C1N(C)C(=O)N(C)C2=O` (stereo not drawn), the TGI was greater than 100 µM in the assay with HCT-15 colon; 43.3 µM in the assay with MDA-N; greater than 100 µM in the assay with NCI-H522 lung; greater than 100 µM in the assay on SR leukemia; greater than 100 µM in the assay on NCI-H23 lung; greater than 100 µM in the assay on OVCAR-3 ovarian. Also, the TGI in the assay on MCF7 breast, in the assay on CAKI-1 renal and with MDA-MB-231 breast was greater than 100 µM throughout.
